14 molecules from patent publication US9266904B2, “6-bridged heteroaryldihydropyrimidines for the treatment and prophylaxis of hepatitis B virus infection” (priority 2013, dated 2016) can be followed below.

Converted amounts (≈) assume the structure as drawn. Like-named read-outs stand apart in the source and are kept apart here.

Series [1] can be described thus: Human microsomal clearance assay. In kind it is in vitro ADME. Particulars: human, 1 μM, pH 7.4. In short, it runs like this: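 Liver microsomes (0.5 mg/mL protein) were incubated with 1 μM compound at 37 °C, pH 7.4 phosphate, with an NADPH-regenerating system. Samples at 0-30 min were quenched and measured by LC-MS/MS for parent loss. No-NADPH controls were included.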

Series [2] can be described thus: Lyophilisation solubility assay (Lysa). In kind it is physicochemical. Conditions: thermodynamic from solid. The essentials: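 DMSO was evaporated from 10 mM stocks, and residues were taken up in 0.05 M phosphate buffer pH 6.5, stirred 1 h, shaken 2 h and left overnight. Filtrates were quantified by UV or HPLC-UV against a four-point calibration, in duplicate. Values are in μg/ml, with a lower-bound value when >80% dissolved.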

The nature of series [3]: Cytotoxicity (CCK-8 cell viability) and selectivity index. In kind it is cell-based, human. Particulars: human, HepDE19 cells; cytotoxicity, concentration resulting in death of 50% of host cells. The source says:
(§1) HepG2.2.15 and HepDE19 are stably-transfected cell lines containing the HBV genome. Both cell lines are derived from the hepatoblastoma cell line Hep G2 (American Type Culture Collection, ATCC® HB-8065™) by the published procedures described in references: M A Selles et al. Proc. Natl. Acad. Sci. USA 1987, 84, 1005-1009 and H Guo et al. Journal of Virology 2007, 81, 12472-12484, respectively. Both cell lines were maintained in Dulbecco's modified Eagle's medium (DMEM)-F12 medium supplemented with 10% fetal bovine serum, 100 U/mL penicillin, 100 μg/mL streptomycin, and 0.5 mg/mL of G418.
(§2) In a cell culture model, apparent antiviral activity of a compound can be the result of host cell death after exposure to the compound. To determine whether the anti-HBV effect of a test compound is due to cytotoxicity, HepDE19 cells were seeded into 96-well plates (5×10^3 cells per well) and treated with compounds as described above for EC50 determination. Five days after treatment, cell viability was measured by addition of 20 μL of CCK-8 reagent. Two hours after incubation at 37° C., the absorbance at wavelengths of 450 nm and 630 nm (OD450 and OD630) was recorded by a plate reader. The concentration results in the death of 50% of the host cells (CC50) of each compound was determined (See Table 5).

The test system of the next series is HepDE19 cells. Described as above. In kind it is cell-based, human. Conditions: CC50 value/EC50 value.
Description: as §1, §2

The subject of series [4] is HBV replication in HepG2.2.15 cells. The experiment in a line: Anti-HBV activity in vitro in HepG2.2.15 cells (extracellular HBV DNA by qPCR). In kind it is cell-based. Particulars: Hepatitis B virus, HepG2.2.15, Anti-HBV activity in HepG2.2.15 cells; read-out: EC50. The essentials: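 EC50 is derived from qPCR of extracellular viral DNA in culture supernatant after 5-day compound exposure. Cells (HepG2.2.15, stably carrying the HBV genome) were plated and incubated overnight at 37 °C before half-log dilution series were added at 0.5% final DMSO.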

In general, CC50 refers to the concentration that lowers cell viability or growth by half. The low end stands for greater toxicity to the cells, the high end for lower toxicity to the cells. By EC50 is commonly meant the concentration at which the effect is half-maximal.

On to `CCOC(=O)C1=C(CN2[C@@H]3COC[C@H]2C[C@H](CC(=O)O)C3)NC(c2nccs2)=N[C@H]1c1ccc(F)cc1Br` [Example 67, Exo-2-[(1S,5R)-9-[[(4R)-4-(2-bromo-4-fluoro-phenyl)-5-ethoxycarbonyl-2-thiazol-2-yl-1,4-dihydropyrimidin-6-yl]methyl]-3-oxa-9-azabicyclo[3.3.1]nonan-7-yl]acetic acid], for which the CLh in series [1] amounted to 2.9 mL/min/kg. In series [2] (pH 6.5, aqueous buffer), this molecule came in with a solubility thermodynamic of 319 µg/mL (≈ 525 µM). Further, the CC50 at 5 days in series [3] is above 100000 nM. In addition, the “Selectivity index (CC50/EC50)” value with HepDE19 cells is listed as above 25000. Besides, in series [4], the EC50 is 4 nM.
The molecule `CCOC(=O)C1=C(CN2C3COCC2C(C(=O)O)C3)NC(c2nccs2)=N[C@H]1c1ccc(F)cc1Br` (stereo partly drawn) [Example 52, 8-[[(4R)-4-(2-bromo-4-fluoro-phenyl)-5-ethoxycarbonyl-2-thiazol-2-yl-1,4-dihydropyrimidin-6-yl]methyl]-3-oxa-8-azabicyclo[3.2.1]octane-6-carboxylic acid] displayed a CLh in series [1] of 2.7 mL/min/kg. In addition, in series [2] (pH 6.5, aqueous buffer), the solubility thermodynamic was above 630 µg/mL. Moreover, the 50% cytotoxic concentration (CC50) at 5 days in series [3] was above 100000 nM. Also, in the series with HepDE19 cells, the “Selectivity index (CC50/EC50)” value is above 5587. In series [4], the EC50 was determined as 17.9 nM.
Take `COC(=O)C1=C(CN2[C@@H]3COC[C@H]2C[C@H](NC(C)=O)C3)NC(c2nccs2)=N[C@H]1c1ccc(F)cc1Cl` [Example 61, Methyl (4R)-6-[[(1S,5R)-7-exo-acetamido-3-oxa-9-azabicyclo[3.3.1]nonan-9-yl]methyl]-4-(2-chloro-4-fluoro-phenyl)-2-thiazol-2-yl-1,4-dihydropyrimidine-5-carboxylate]: the CLh in series [1] stood at 6.3 mL/min/kg. The half-maximal cytotoxic concentration (CC50) at 5 days in series [3] was found to be 53000 nM. Also, in the series on HepDE19 cells, the “Selectivity index (CC50/EC50)” value is listed as 10942. In series [4], the concentration for a half-maximal effect (EC50) worked out at 4.8 nM.
In series [1], `COC(=O)C1=C(CN2[C@@H]3C[C@@H](CC(=O)O)C[C@H]2C(F)(F)C3)NC(c2nccs2)=N[C@H]1c1ccc(F)c(F)c1C` [Example 111, 2-[(1R,3R,5S)-8-[[(4S)-4-(3,4-difluoro-2-methyl-phenyl)-5-methoxycarbonyl-2-thiazol-2-yl-1,4-dihydropyrimidin-6-yl]methyl]-6,6-difluoro-8-azabicyclo[3.2.1]octan-3-yl]acetic acid] gave a CLh of 4.8 mL/min/kg. Also, the midpoint of cytotoxicity in series [3], the CC50 at 5 days, lay at 79000 nM. For the same molecule, in the series with HepDE19 cells, the “Selectivity index (CC50/EC50)” value stood at 65983. In addition, the EC50 in series [4] came to 1.2 nM.
For the molecule `COC(=O)C1=C(CN2C3COCC2c2c(n(C)[nH]c2=O)C3)NC(c2nccs2)=N[C@H]1c1ccc(F)cc1Cl` (stereo partly drawn) [Example 33, (R)-4-(2-Chloro-4-fluoro-phenyl)-6-(5-methyl-3-oxo-10-oxa-4,5,12-triaza-tricyclo[6.3.1.0*2,6*]dodec-2(6)-en-12-ylmethyl)-2-thiazol-2-yl-1,4-dihydro-pyrimidine-5-carboxylic acid methyl ester], the solubility thermodynamic in series [2] (pH 6.5, aqueous buffer) was 100 µg/mL (≈ 179 µM). In series [3], this molecule showed a half-maximal cytotoxic concentration (CC50) at 5 days above 100000 nM. Further, in the series with HepDE19 cells, the “Selectivity index (CC50/EC50)” value is listed as above 9091. The EC50 in series [4] came to 11 nM.
The molecule `COC(=O)C1=C(CN2[C@@H]3COC[C@H]2C[C@H](NS(C)(=O)=O)C3)NC(c2nccs2)=N[C@H]1c1ccc(F)cc1Cl` [Example 60, Methyl (4R)-4-(2-chloro-4-fluoro-phenyl)-6-[[(1R,5S)-7-exo-(methanesulfonamido)-3-oxa-9-azabicyclo[3.3.1]nonan-9-yl]methyl]-2-thiazol-2-yl-1,4-dihydropyrimidine-5-carboxylate] showed a CLh in series [1] of 6.4 mL/min/kg. For the same molecule, in series [3], the midpoint of cytotoxicity, the CC50 at 5 days, lay at 34000 nM. The “Selectivity index (CC50/EC50)” value in the series with HepDE19 cells amounted to 21169. For the same molecule, in series [4], the 50% effective concentration (EC50) came to 1.6 nM.
The corresponding values for `COC(=O)C1=C(CN2C3COCC2CN(S(C)(=O)=O)C3)NC(c2nccs2)=N[C@H]1c1ccc(F)cc1Cl` [Example 11, (R)-4-(2-Chloro-4-fluoro-phenyl)-6-(7-methanesulfonyl-3-oxa-7,9-diaza-bicyclo[3.3.1]non-9-ylmethyl)-2-thiazol-2-yl-1,4-dihydro-pyrimidine-5-carboxylic acid methyl ester] are 9.0 mL/min/kg, above 100000 nM, above 15152 and 6.6 nM.
`COC(=O)C1=C(CN2CC3(CNC(C)=O)CC2CO3)NC(c2nccs2)=N[C@H]1c1ccc(F)cc1Cl` (stereo partly drawn) [Example 145, Methyl (4R)-6-[[4-(acetamidomethyl)-5-oxa-2-azabicyclo[2.2.1]heptan-2-yl]methyl]-4-(2-chloro-4-fluoro-phenyl)-2-thiazol-2-yl-1,4-dihydropyrimidine-5-carboxylate]: in series [2] (aqueous buffer, 0.05 M phosphate buffer (pH 6.5), reported as bigger than the value if more than 80% of the sample is in solution, read-out: Lysa), the solubility thermodynamic was determined as 585 µg/mL (≈ 1100 µM). Moreover, the 50% cytotoxic concentration (CC50) at 5 days in series [3] was above 100000 nM. Also, the “Selectivity index (CC50/EC50)” value in the series with HepDE19 cells was above 5882. Besides, the concentration giving a half-maximal response (EC50) in series [4] was found to be 17 nM.
Take `COC(=O)C1=C(CN2C3COCC2CC(O)(CO)C3)NC(c2nccs2)=N[C@H]1c1ccc(F)cc1Cl` (stereo partly drawn) [Example 10, (R)-4-(2-Chloro-4-fluoro-phenyl)-6-(7-hydroxy-7-hydroxymethyl-3-oxa-9-aza-bicyclo[3.3.1]non-9-ylmethyl)-2-thiazol-2-yl-1,4-dihydro-pyrimidine-5-carboxylic acid methyl ester]: in series [2] (pH 6.5, aqueous buffer), the solubility thermodynamic came to 435 µg/mL (≈ 810 µM). This molecule gave a CC50 at 5 days in series [3] above 100000 nM. Also, the “Selectivity index (CC50/EC50)” value in the series with HepDE19 cells was above 11364. Further, in series [4], the EC50 was determined as 8.8 nM.
As for `COC(=O)C1=C(CN2C3COCC2CN(S(N)(=O)=O)C3)NC(c2nccs2)=N[C@H]1c1ccc(F)cc1Cl` [Example 19, (R)-4-(2-Chloro-4-fluoro-phenyl)-6-(7-sulfamoyl-3-oxa-7,9-diaza-bicyclo[3.3.1]non-9-ylmethyl)-2-thiazol-2-yl-1,4-dihydro-pyrimidine-5-carboxylic acid methyl ester], the CLh in series [1] is 4.6 mL/min/kg. This molecule also registered a CC50 at 5 days in series [3] of 58000 nM. For the same molecule, in the series with HepDE19 cells, the “Selectivity index (CC50/EC50)” value stood at 16571. Further, the EC50 in series [4] is 4 nM.
The like results for `CCOC(=O)C1=C(CN2C3COCC2C(F)(F)[C@H](CC(=O)O)C3)NC(c2nccs2)=N[C@H]1c1ccc(F)c(F)c1C` (stereo partly drawn) [Example 128, 2-[(7S)-9-[[(4S)-4-(3,4-difluoro-2-methyl-phenyl)-5-ethoxycarbonyl-2-thiazol-2-yl-1,4-dihydropyrimidin-6-yl]methyl]-6,6-difluoro-3-oxa-9-azabicyclo[3.3.1]nonan-7-yl]acetic acid] were, in that order, 3.8 mL/min/kg, 35000 nM, 14056 and 2.5 nM.
As for `COC(=O)C1=C(CN2C3COCC2CC(NS(C)(=O)=O)C3)NC(c2nccs2)=N[C@H]1c1ccc(F)cc1Cl` (stereo partly drawn) [Example 36, (R)-4-(2-Chloro-4-fluoro-phenyl)-6-(7-methanesulfonylamino-3-oxa-9-aza-bicyclo[3.3.1]non-9-ylmethyl)-2-thiazol-2-yl-1,4-dihydro-pyrimidine-5-carboxylic acid methyl ester], the CLh in series [1] worked out at 7.8 mL/min/kg. The molecule also registered a CC50 at 5 days in series [3] of 38000 nM. Also, in the series with HepDE19 cells, the “Selectivity index (CC50/EC50)” value is listed as 11875. The EC50 in series [4] was 3 nM.
Molecule `COC(=O)C1=C(CN2[C@@H]3COC[C@H]2C[C@H](NS(N)(=O)=O)C3)NC(c2nccs2)=N[C@H]1c1ccc(F)cc1Cl` [Example 63, Methyl (4R)-4-(2-chloro-4-fluoro-phenyl)-6-[[(1R,5S)-7-exo-(sulfamoylamino)-3-oxa-9-azabicyclo[3.3.1]nonan-9-yl]methyl]-2-thiazol-2-yl-1,4-dihydropyrimidine-5-carboxylate] came in with a CLh in series [1] of 4.1 mL/min/kg. Further, the midpoint of cytotoxicity in series [3], the CC50 at 5 days, lay at 34000 nM. For the same molecule, the “Selectivity index (CC50/EC50)” value in the series on HepDE19 cells is reported as 22367. Besides, the concentration for a half-maximal effect (EC50) in series [4] was 1.5 nM.
Take `COC(=O)C1=C(CN2[C@@H]3COC[C@H]2C[C@H](NC(N)=O)C3)NC(c2nccs2)=N[C@H]1c1ccc(F)cc1Cl` [Example 62, Methyl (4R)-4-(2-chloro-4-fluoro-phenyl)-2-thiazol-2-yl-6-[[(1S,5R)-7-exo-ureido-3-oxa-9-azabicyclo[3.3.1]nonan-9-yl]methyl]-1,4-dihydropyrimidine-5-carboxylate]: the CLh in series [1] was determined as 4.6 mL/min/kg. This molecule also gave a half-maximal cytotoxic concentration (CC50) at 5 days in series [3] of 46000 nM. Also, in the series on HepDE19 cells, the “Selectivity index (CC50/EC50)” value is reported as 6571. Moreover, the EC50 in series [4] is 7 nM.
